From patent publication US12428406B2 (PMV Pharmaceuticals, Inc., priority 2019, dated 2025) come the findings set out here.

T1 sequence (P04637 94-312, change not shown): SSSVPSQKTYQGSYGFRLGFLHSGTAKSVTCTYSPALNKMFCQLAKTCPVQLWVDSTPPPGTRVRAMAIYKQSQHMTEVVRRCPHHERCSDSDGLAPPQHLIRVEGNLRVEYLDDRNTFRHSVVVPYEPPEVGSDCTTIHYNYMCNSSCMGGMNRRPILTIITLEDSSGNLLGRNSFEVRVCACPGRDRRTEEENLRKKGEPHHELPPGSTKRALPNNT

The assay has as its target T1, p53 Y220C (Homo sapiens, UniProt P04637, Y220C).
T1 construct: The recombinant protein was a truncation mutant containing only amino acids 94-312 of p53; made in house; host or cells: E. coli
Kind of assay: In vitro DNA binding activity assay (HTRF / TR-FRET): stabilization of p53 Y220C and increase of its DNA binding activity. In kind it is biochemical. The following applies: recombinant His-tagged p53 Y220C DNA binding domain (aa 94-312), biotin-labeled consensus DNA, incubated at 27° C. or 29° C. for 60 min. In short, it runs like this:
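Test compounds, diluted 3-fold in DMSO from 4.5 mM stocks, were incubated with bacterially expressed His-tagged p53 Y220C at room temperature for 15 min, and after a further step for 20 min. DNA binding was detected by time-resolved FRET between APC and europium labels. SC150 marks the concentration increasing binding by 50%.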
A general note: TR-FRET usually uses a lanthanide donor and a delayed reading to cut background.
Turning to `COc1cc(S(C)(=O)=O)ccc1NCC#Cc1cc2c(N[C@H]3CC[C@H](N4CCC(C(F)(F)F)CC4)CC3)cccc2n1CC(F)(F)F` [Compound 436A, 2-{3-[(4-methane-sulfonyl-2-methoxy-phenyl)amino]prop-1-yn-1-yl}-N-[(1R,4R)-4-[4-(trifluoromethyl)piperidin-1-yl]cyclohexyl]-1-(2,2,2-trifluoroethyl)-1H-indol-4-amine], the “SC150 (concentration of the compound required to increase the DNA binding activity by 50%)” value was “+ (+ = 0 μM ≤ SC150 < 0.05 μM)”. With `COc1cc(S(C)(=O)=O)ccc1NCC#Cc1cc2c(N[C@H]3CC[C@H](N4CC5COCC5C4)CC3)cccc2n1CC(F)(F)F` (stereo partly drawn) [Compound 432A, 2-{3-[(4-methane-sulfonyl-2-methoxy-phenyl)amino]prop-1-yn-1-yl}-N-[(1R,4R)-4-{hexahydro-1H-furo[3,4-c]pyrrol-5-yl}cyclohexyl]-1-(2,2,2-trifluoroethyl)-1H-indol-4-amine], the “SC150 (concentration of the compound required to increase the DNA binding activity by 50%)” value is given as “+ (+ = 0 μM ≤ SC150 < 0.05 μM)”. For `COCC(O)CN1CCC(Nc2cccc3c2cc(C#CCNc2ccc(S(=O)(=O)C4CC4)cc2OC)n3CC(F)(F)F)CC1` (stereo not drawn) [Compound 685A, 1-(4-{[2-(3-{[4-(cyclopropanesulfonyl)-2-methoxyphenyl]amino}prop-1-yn-1-yl)-1-(2,2,2-trifluoroethyl)-1H-indol-4-yl]amino}piperidin-1-yl)-3-methoxypropan-2-ol] the value was “+ (+ = 0 μM ≤ SC150 < 0.05 μM)”; for `CS(=O)(=O)c1ccc(NCC#Cc2cc3c(N[C@H]4CC[C@H](N5CCC6(CC5)COC6)CC4)cccc3n2CC(F)(F)F)c(OCF)c1` [Compound 391A, 2-(3-{[2-(fluoro-methoxy)-4-methane-sulfonylphenyl]amino}prop-1-yn-1-yl)-N-[(1R,4R)-4-(2-oxa-7-azaspiro[3.5]nonan-7-yl}cyclohexyl]-1-(2,2,2-trifluoroethyl)-1H-indol-4-amine], “+ (+ = 0 μM ≤ SC150 < 0.05 μM)”. As to `CC(C)C(=O)Oc1cc(S(C)(=O)=O)ccc1NCC#Cc1cc2c(N[C@H]3CC[C@@H](N4CC5(COC5)C4)CC3)cccc2n1CC(F)(F)F` [Compound 224A, 5-methanesulfonyl-2-{[3-(4-{[(1S,4S)-4-{2-oxa-6-azaspiro[3.3]heptan-6-yl}cyclohexyl]amino}-1-(2,2,2-trifluoroethyl)-1H-indol-2-yl)prop-2-yn-1-yl]amino}phenyl 2-methylpropanoate], the “SC150 (concentration of the compound required to increase the DNA binding activity by 50%)” value was “+ (+ = 0 μM ≤ SC150 < 0.05 μM)”. In the case of `CN(C)CCOc1cc(S(C)(=O)=O)ccc1NCC#Cc1cc2c(NC3CCS(=O)(=O)CC3)cccc2n1CC(F)(F)F` [Compound 1037A, 4-({2-[3-({2-[2-(dimethylamino)ethoxy]-4-methanesulfonylphenyl}amino)prop-1-yn-1-yl]-1-(2,2,2-trifluoroethyl)-1H-indol-4-yl}amino)-1λ^6-thiane-1,1-dione], the “SC150 (concentration of the compound required to increase the DNA binding activity by 50%)” value was “++ (++ = 0.05 μM ≤ SC150 < 0.1 μM)”.

For `COCC(O)CN1CCC(Nc2cccc3c2cc(C#CCNc2ccc(C(F)(F)F)cc2OC)n3CC(F)(F)F)CC1` (stereo not drawn) [Compound 689A, 1-methoxy-3-(4-{[2-(3-{[2-methoxy-4-(trifluoromethyl)phenyl]amino}prop-1-yn-1-yl)-1-(2,2,2-trifluoroethyl)-1H-indol-4-yl]amino}piperidin-1-yl)propan-2-ol], the “SC150 (concentration of the compound required to increase the DNA binding activity by 50%)” value was “+++ (+++ = 0.1 μM ≤ SC150 < 0.2 μM)”. The value for `COc1cc(S(N)(=O)=O)ccc1NCC#Cc1cc2c(NCC(N)=O)cccc2n1CC(F)(F)F` [Compound 3A, 2-[(2-{3-[(2-methoxy-4-sulfamoylphenyl)amino]prop-1-yn-1-yl}-1-(2,2,2-trifluoroethyl)-1H-indol-4-yl)amino]acetamide] was “++++ (++++ = 0.2 μM ≤ SC150 < 1 μM)”; that for `COc1cc(C(=O)NCC(CO)OC)ccc1NCC#Cc1cc2c(N[C@@H]3CCN(C)C[C@@H]3F)cccc2n1CC(F)(F)F` (single isomer, unassigned) [Compound 966A] was “+ (+ = 0 μM ≤ SC150 < 0.05 μM)”.
